Laboratory results taken from PubChem BioAssay (NCI).
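Interpolation was linear, between the two tested concentrations surrounding the appropriate level; five concentrations were tested over 48 hours in 96-well plates. At the TGI there is no net growth.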

Columns and labels:
Test in all cases: inhibition of tumour cell growth, NCI panel, 48 h
786-0 renal = system: 786-0 renal
A498 renal = system: A498 renal
A549 NSCLC = system: A549 NSCLC
ACHN renal = system: ACHN renal
BT-549 breast = system: BT-549 breast
CCRF-CEM leukemia = system: CCRF-CEM leukemia
COLO 205 colon = system: COLO 205 colon
DU-145 prostate = system: DU-145 prostate
EKVX NSCLC = system: EKVX NSCLC
HCC-2998 colon = system: HCC-2998 colon
HCT-116 colon = system: HCT-116 colon
HCT-15 colon = system: HCT-15 colon
HL-60(TB) leukemia = system: HL-60(TB) leukemia
HOP-62 NSCLC = system: HOP-62 NSCLC
HOP-92 NSCLC = system: HOP-92 NSCLC
HS 578T breast = system: HS 578T breast
HT29 colon = system: HT29 colon
IGROV1 ovarian = system: IGROV1 ovarian
K-562 leukemia = system: K-562 leukemia
KM12 colon = system: KM12 colon
M14 melanoma = system: M14 melanoma
MALME-3M melanoma = system: MALME-3M melanoma
MCF7 breast = system: MCF7 breast
MDA-MB-435 = system: MDA-MB-435
MDA-N = system: MDA-N
MOLT-4 leukemia = system: MOLT-4 leukemia
NCI-H226 lung = system: NCI-H226 lung
NCI-H23 lung = system: NCI-H23 lung
NCI-H460 lung = system: NCI-H460 lung
NCI/ADR-RES ovarian = system: NCI/ADR-RES ovarian
OVCAR-3 ovarian = system: OVCAR-3 ovarian
OVCAR-5 ovarian = system: OVCAR-5 ovarian
OVCAR-8 ovarian = system: OVCAR-8 ovarian
PC-3 prostate = system: PC-3 prostate
RPMI-8226 leukemia = system: RPMI-8226 leukemia
RXF 393 renal = system: RXF 393 renal
SF-268 CNS = system: SF-268 CNS
SF-295 CNS = system: SF-295 CNS
SF-539 CNS = system: SF-539 CNS
SK-MEL-28 melanoma = system: SK-MEL-28 melanoma
SK-MEL-5 melanoma = system: SK-MEL-5 melanoma
SK-OV-3 ovarian = system: SK-OV-3 ovarian
SN12C renal = system: SN12C renal
SNB-19 CNS = system: SNB-19 CNS
SNB-75 CNS = system: SNB-75 CNS
SR leukemia = system: SR leukemia
SW-620 colon = system: SW-620 colon
TK-10 renal = system: TK-10 renal
U251 CNS = system: U251 CNS
UACC-257 melanoma = system: UACC-257 melanoma
UACC-62 melanoma = system: UACC-62 melanoma
UO-31 renal = system: UO-31 renal
CAKI-1 renal = system: CAKI-1 renal
LOX IMVI melanoma = system: LOX IMVI melanoma
NCI-H522 lung = system: NCI-H522 lung
OVCAR-4 ovarian = system: OVCAR-4 ovarian
SK-MEL-2 melanoma = system: SK-MEL-2 melanoma
T-47D breast = system: T-47D breast
MDA-MB-231 breast = system: MDA-MB-231 breast

CCOC(=O)c1csc(-c2nc(CCNC(=O)c3ccccc3)sc2Cl)n1
TGI (786-0 renal): > 100 µM | TGI (A498 renal): > 100 µM | TGI (A549 NSCLC): > 100 µM | TGI (ACHN renal): > 100 µM | TGI (BT-549 breast): > 100 µM | TGI (CCRF-CEM leukemia): > 100 µM | TGI (COLO 205 colon): > 100 µM | TGI (DU-145 prostate): > 100 µM | TGI (EKVX NSCLC): > 100 µM | TGI (HCC-2998 colon): > 100 µM | TGI (HCT-116 colon): > 100 µM | TGI (HCT-15 colon): > 100 µM | TGI (HL-60(TB) leukemia): > 100 µM | TGI (HOP-62 NSCLC): > 100 µM | TGI (HOP-92 NSCLC): 46.4 µM | TGI (HS 578T breast): > 100 µM | TGI (HT29 colon): > 100 µM | TGI (IGROV1 ovarian): > 100 µM | TGI (K-562 leukemia): > 100 µM | TGI (KM12 colon): > 100 µM | TGI (M14 melanoma): > 100 µM | TGI (MALME-3M melanoma): > 100 µM | TGI (MCF7 breast): > 100 µM | TGI (MDA-MB-435): > 100 µM | TGI (MDA-N): > 100 µM | TGI (MOLT-4 leukemia): > 100 µM | TGI (NCI-H226 lung): > 100 µM | TGI (NCI-H23 lung): > 100 µM | TGI (NCI-H460 lung): > 100 µM | TGI (NCI/ADR-RES ovarian): > 100 µM | TGI (OVCAR-3 ovarian): > 100 µM | TGI (OVCAR-5 ovarian): > 100 µM | TGI (OVCAR-8 ovarian): > 100 µM | TGI (PC-3 prostate): > 100 µM | TGI (RPMI-8226 leukemia): > 100 µM | TGI (RXF 393 renal): > 100 µM | TGI (SF-268 CNS): > 100 µM | TGI (SF-295 CNS): > 100 µM | TGI (SF-539 CNS): > 100 µM | TGI (SK-MEL-28 melanoma): > 100 µM | TGI (SK-MEL-5 melanoma): > 100 µM | TGI (SK-OV-3 ovarian): > 100 µM | TGI (SN12C renal): > 100 µM | TGI (SNB-19 CNS): > 100 µM | TGI (SNB-75 CNS): > 100 µM | TGI (SR leukemia): > 100 µM | TGI (SW-620 colon): > 100 µM | TGI (TK-10 renal): > 100 µM | TGI (U251 CNS): > 100 µM | TGI (UACC-257 melanoma): > 100 µM | TGI (UACC-62 melanoma): > 100 µM | TGI (UO-31 renal): > 100 µM

CC1(C)CN=C(Nc2ccc(F)c(Cl)c2)S1
TGI (786-0 renal): > 100 µM | TGI (A549 NSCLC): > 100 µM | TGI (ACHN renal): > 100 µM | TGI (BT-549 breast): > 100 µM | TGI (CAKI-1 renal): > 100 µM | TGI (CCRF-CEM leukemia): > 100 µM | TGI (COLO 205 colon): > 100 µM | TGI (DU-145 prostate): > 100 µM | TGI (EKVX NSCLC): > 100 µM | TGI (HCC-2998 colon): > 100 µM | TGI (HCT-116 colon): > 100 µM | TGI (HCT-15 colon): > 100 µM | TGI (HL-60(TB) leukemia): > 100 µM | TGI (HOP-62 NSCLC): > 100 µM | TGI (HOP-92 NSCLC): > 100 µM | TGI (HS 578T breast): > 100 µM | TGI (HT29 colon): > 100 µM | TGI (IGROV1 ovarian): > 100 µM | TGI (K-562 leukemia): > 100 µM | TGI (KM12 colon): > 100 µM | TGI (LOX IMVI melanoma): > 100 µM | TGI (M14 melanoma): > 100 µM | TGI (MALME-3M melanoma): > 100 µM | TGI (MCF7 breast): > 100 µM | TGI (MDA-MB-435): > 100 µM | TGI (MDA-N): > 100 µM | TGI (MOLT-4 leukemia): > 100 µM | TGI (NCI-H226 lung): > 100 µM | TGI (NCI-H23 lung): > 100 µM | TGI (NCI-H522 lung): > 100 µM | TGI (NCI/ADR-RES ovarian): > 100 µM | TGI (OVCAR-3 ovarian): > 100 µM | TGI (OVCAR-4 ovarian): > 100 µM | TGI (OVCAR-5 ovarian): > 100 µM | TGI (OVCAR-8 ovarian): > 100 µM | TGI (PC-3 prostate): > 100 µM | TGI (RPMI-8226 leukemia): > 100 µM | TGI (RXF 393 renal): > 100 µM | TGI (SF-268 CNS): > 100 µM | TGI (SF-295 CNS): > 100 µM | TGI (SF-539 CNS): > 100 µM | TGI (SK-MEL-2 melanoma): > 100 µM | TGI (SK-MEL-28 melanoma): > 100 µM | TGI (SK-MEL-5 melanoma): > 100 µM | TGI (SK-OV-3 ovarian): > 100 µM | TGI (SN12C renal): > 100 µM | TGI (SNB-19 CNS): > 100 µM | TGI (SNB-75 CNS): > 100 µM | TGI (SR leukemia): > 100 µM | TGI (SW-620 colon): > 100 µM | TGI (T-47D breast): > 100 µM | TGI (TK-10 renal): > 100 µM | TGI (U251 CNS): > 100 µM | TGI (UACC-257 melanoma): > 100 µM | TGI (UACC-62 melanoma): > 100 µM | TGI (UO-31 renal): > 100 µM

O=C1/C(=C\c2cccc(Oc3ccccc3)c2)SC(c2ccccc2)N1c1cccc(Cl)c1 (stereo not drawn)
TGI (786-0 renal): > 100 µM | TGI (A498 renal): > 100 µM | TGI (A549 NSCLC): > 100 µM | TGI (ACHN renal): > 100 µM | TGI (BT-549 breast): > 100 µM | TGI (CAKI-1 renal): > 100 µM | TGI (COLO 205 colon): > 100 µM | TGI (DU-145 prostate): > 100 µM | TGI (EKVX NSCLC): > 100 µM | TGI (HCC-2998 colon): > 100 µM | TGI (HCT-116 colon): > 100 µM | TGI (HCT-15 colon): > 100 µM | TGI (HOP-62 NSCLC): > 100 µM | TGI (HOP-92 NSCLC): > 100 µM | TGI (HS 578T breast): > 100 µM | TGI (HT29 colon): > 100 µM | TGI (K-562 leukemia): > 100 µM | TGI (KM12 colon): > 100 µM | TGI (LOX IMVI melanoma): > 100 µM | TGI (M14 melanoma): > 100 µM | TGI (MALME-3M melanoma): > 100 µM | TGI (MDA-MB-231 breast): > 100 µM | TGI (MDA-MB-435): > 100 µM | TGI (MDA-N): > 100 µM | TGI (MOLT-4 leukemia): > 100 µM | TGI (NCI-H226 lung): > 100 µM | TGI (NCI-H23 lung): > 100 µM | TGI (NCI-H460 lung): > 100 µM | TGI (NCI/ADR-RES ovarian): > 100 µM | TGI (OVCAR-3 ovarian): > 100 µM | TGI (OVCAR-4 ovarian): > 100 µM | TGI (OVCAR-5 ovarian): > 100 µM | TGI (OVCAR-8 ovarian): > 100 µM | TGI (RPMI-8226 leukemia): > 100 µM | TGI (RXF 393 renal): > 100 µM | TGI (SF-268 CNS): > 100 µM | TGI (SF-295 CNS): > 100 µM | TGI (SK-MEL-2 melanoma): > 100 µM | TGI (SK-MEL-28 melanoma): > 100 µM | TGI (SK-MEL-5 melanoma): > 100 µM | TGI (SK-OV-3 ovarian): > 100 µM | TGI (SN12C renal): > 100 µM | TGI (SNB-19 CNS): > 100 µM | TGI (SW-620 colon): > 100 µM | TGI (T-47D breast): > 100 µM | TGI (TK-10 renal): > 100 µM | TGI (U251 CNS): > 100 µM | TGI (UACC-257 melanoma): > 100 µM | TGI (UACC-62 melanoma): > 100 µM | TGI (UO-31 renal): > 100 µM
